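Test compounds were applied to cells in 96-well plates for 48 hours at 5 doses. TGI: concentration producing complete growth inhibition.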
What was measured:
Experiment in all cases: NCI anticancer screen, dose series, 48 h
SNB-19 CNS = tested on: SNB-19 CNS
HOP-62 NSCLC = tested on: HOP-62 NSCLC
EKVX NSCLC = tested on: EKVX NSCLC
UO-31 renal = tested on: UO-31 renal
ACHN renal = tested on: ACHN renal
DLD-1 colon = tested on: DLD-1 colon
HCT-116 colon = tested on: HCT-116 colon
HCT-15 colon = tested on: HCT-15 colon
RXF 393 renal = tested on: RXF 393 renal
DMS 273 small cell lung = tested on: DMS 273 small cell lung
TK-10 renal = tested on: TK-10 renal
SN12C renal = tested on: SN12C renal
HT29 colon = tested on: HT29 colon
DMS 114 small cell lung = tested on: DMS 114 small cell lung
KM12 colon = tested on: KM12 colon
SK-MEL-28 melanoma = tested on: SK-MEL-28 melanoma
MOLT-4 leukemia = tested on: MOLT-4 leukemia
HL-60(TB) leukemia = tested on: HL-60(TB) leukemia
CCRF-CEM leukemia = tested on: CCRF-CEM leukemia
RPMI-8226 leukemia = tested on: RPMI-8226 leukemia
NCI-H23 lung = tested on: NCI-H23 lung
A498 renal = tested on: A498 renal
LXFL 529 NSCLC = tested on: LXFL 529 NSCLC
OVCAR-8 ovarian = tested on: OVCAR-8 ovarian
OVCAR-4 ovarian = tested on: OVCAR-4 ovarian
NCI-H226 lung = tested on: NCI-H226 lung
SF-268 CNS = tested on: SF-268 CNS
MALME-3M melanoma = tested on: MALME-3M melanoma
HCC-2998 colon = tested on: HCC-2998 colon
XF 498 CNS = tested on: XF 498 CNS
SR leukemia = tested on: SR leukemia
K-562 leukemia = tested on: K-562 leukemia
UACC-62 melanoma = tested on: UACC-62 melanoma
NCI-H522 lung = tested on: NCI-H522 lung
U251 CNS = tested on: U251 CNS
UACC-257 melanoma = tested on: UACC-257 melanoma
LOX IMVI melanoma = tested on: LOX IMVI melanoma
IGROV1 ovarian = tested on: IGROV1 ovarian
M19-MEL melanoma = tested on: M19-MEL melanoma
SF-539 CNS = tested on: SF-539 CNS
COLO 205 colon = tested on: COLO 205 colon
M14 melanoma = tested on: M14 melanoma
SK-MEL-2 melanoma = tested on: SK-MEL-2 melanoma
SF-295 CNS = tested on: SF-295 CNS
HOP-92 NSCLC = tested on: HOP-92 NSCLC
A549 NSCLC = tested on: A549 NSCLC
OVCAR-3 ovarian = tested on: OVCAR-3 ovarian
HOP-18 NSCLC = tested on: HOP-18 NSCLC
SK-OV-3 ovarian = tested on: SK-OV-3 ovarian
KM20L2 colon = tested on: KM20L2 colon
SW-620 colon = tested on: SW-620 colon
NCI-H460 lung = tested on: NCI-H460 lung
SNB-75 CNS = tested on: SNB-75 CNS
786-0 renal = tested on: 786-0 renal
MDA-N = tested on: MDA-N
BT-549 breast = tested on: BT-549 breast
DU-145 prostate = tested on: DU-145 prostate
MDA-MB-435 = tested on: MDA-MB-435
OVCAR-5 ovarian = tested on: OVCAR-5 ovarian
SK-MEL-5 melanoma = tested on: SK-MEL-5 melanoma
T-47D breast = tested on: T-47D breast
CAKI-1 renal = tested on: CAKI-1 renal
MDA-MB-231 breast = tested on: MDA-MB-231 breast
PC-3 prostate = tested on: PC-3 prostate
MCF7 breast = tested on: MCF7 breast
NCI/ADR-RES ovarian = tested on: NCI/ADR-RES ovarian
HS 578T breast = tested on: HS 578T breast

Measured: TGI

CCN(CC)C(=O)Cc1c(C(=O)N(CC)CC)c(=O)nc2sccn12
> 100 µM: SNB-19 CNS | HOP-62 NSCLC | EKVX NSCLC | UO-31 renal | ACHN renal | DLD-1 colon | HCT-116 colon | HCT-15 colon | RXF 393 renal | DMS 273 small cell lung | TK-10 renal | SN12C renal | HT29 colon | DMS 114 small cell lung | KM12 colon | SK-MEL-28 melanoma | MOLT-4 leukemia | HL-60(TB) leukemia | CCRF-CEM leukemia | RPMI-8226 leukemia | NCI-H23 lung | A498 renal | LXFL 529 NSCLC | OVCAR-8 ovarian | OVCAR-4 ovarian | NCI-H226 lung | SF-268 CNS | MALME-3M melanoma | HCC-2998 colon | XF 498 CNS | SR leukemia | K-562 leukemia | UACC-62 melanoma | NCI-H522 lung | U251 CNS | UACC-257 melanoma | LOX IMVI melanoma | IGROV1 ovarian | M19-MEL melanoma | SF-539 CNS | COLO 205 colon | M14 melanoma | SK-MEL-2 melanoma | SF-295 CNS | HOP-92 NSCLC | A549 NSCLC | OVCAR-3 ovarian | HOP-18 NSCLC | SK-OV-3 ovarian | KM20L2 colon | SW-620 colon | NCI-H460 lung | SNB-75 CNS | 786-0 renal

Cc1cc(S(=O)(=O)Nc2n[nH]c(Nc3ccc(Cl)cc3)n2)c(S)cc1Cl
> 100 µM: SNB-19 CNS | MDA-N | HOP-62 NSCLC | EKVX NSCLC | UO-31 renal | ACHN renal | HCT-116 colon | HCT-15 colon | RXF 393 renal | BT-549 breast | TK-10 renal | SN12C renal | DU-145 prostate | HT29 colon | KM12 colon | SK-MEL-28 melanoma | MDA-MB-435 | OVCAR-5 ovarian | MOLT-4 leukemia | HL-60(TB) leukemia | CCRF-CEM leukemia | SK-MEL-5 melanoma | RPMI-8226 leukemia | NCI-H23 lung | A498 renal | OVCAR-8 ovarian | OVCAR-4 ovarian | NCI-H226 lung | SF-268 CNS | MALME-3M melanoma | HCC-2998 colon | SR leukemia | K-562 leukemia | UACC-62 melanoma | T-47D breast | NCI-H522 lung | U251 CNS | UACC-257 melanoma | LOX IMVI melanoma | IGROV1 ovarian | SF-539 CNS | CAKI-1 renal | COLO 205 colon | M14 melanoma | SK-MEL-2 melanoma | SF-295 CNS | MDA-MB-231 breast | HOP-92 NSCLC | PC-3 prostate | A549 NSCLC | OVCAR-3 ovarian | SK-OV-3 ovarian | MCF7 breast | NCI/ADR-RES ovarian | SW-620 colon | HS 578T breast | NCI-H460 lung | SNB-75 CNS | 786-0 renal

Reference: PubChem BioAssay (NCI)
